Assay [1] deals with E. coli WT-RFP vs G2058 humanized-GFP mixed culture, fluorescence. In words: selective 23S rRNA G2058 site antibacterials – G2058 mutant GFP vs wild-type RFP, cherry-pick, OD600, dose response (AID 977626).
Assay in assay [2]: as above
The note with it: E. coli WT-RFP vs G2058 humanized-GFP mixed culture, fluorescence; at 50 µM (top of the series).

[3] abbreviates: E. coli WT-RFP vs G2058 humanized-GFP mixed culture, measured here: total growth OD600.
[4] abbreviates: measured here: G2058 humanized mutant strain GFP.

Inconclusive results are not listed. The source made the active and inactive calls. No rule for the calls is given here.

As to `COc1ccc(NC(=O)c2ccc(-c3ccc([N+](=O)[O-])cc3)o2)cc1`, the AC50 in assay [1] is 2.63 µM; in assay [1] (setting [3]) it was 5.22 µM; in assay [1] (setting [4]), > 100 µM.

`COC(=O)c1c(NC(=O)CCC(=O)O)sc(Cc2ccccc2)c1C`: the results for the concentration at half-maximal activity (AC50) in assay [1], in assay [1] (setting [3]) and in assay [1] (setting [4]) were 9.22 µM, 3.27 µM and 3.03 µM, respectively.

Regarding `Cc1ccc(C)c(NC(=O)CSc2nc3nc(-c4cccs4)cc(C(F)(F)F)c3c(=O)[nH]2)c1`, the activity change, negative = inhibition in assay [2] was -7.41 (inactive). Further, the results for the AC50 in assay [1] (setting [3]) and in assay [1] (setting [4]) were 8.26 µM and 9.81 µM, respectively.

On to `COc1ccc(Cn2c(-c3ccc(Cl)cc3)c[n+]3ccccc23)cc1`, for which the activity change, negative = inhibition in assay [2] was -3.75 (inactive). Moreover, in assay [1] (setting [3]), the AC50 was 45.6 µM.

As to `CCN(CC)CCn1c2ccccc2c2nc3ccc([N+](=O)[O-])cc3cc21`, the activity change, negative = inhibition in assay [2] is 26.7 (inactive). Further, the AC50 in assay [1] (setting [3]) is 4.58 µM; in assay [1] (setting [4]), 5.66 µM.

In the case of `COc1ccc(Nc2oc(-c3ccco3)nc2S(=O)(=O)c2ccc(F)cc2)cc1`, in assay [1], the AC50 was 3.67 µM.

As to `O=C(O)c1cc([N+](=O)[O-])ccc1NCc1ccccc1`, the activity change, negative = inhibition in assay [2] was 23.8 (inactive). Also, the figures for the AC50 in assay [1] (setting [3]) and in assay [1] (setting [4]) were 14.4 µM and 38.9 µM, respectively.

The term AC50 denotes the concentration giving half of the maximal activity seen.

For the origin of these results see PubChem BioAssay AID977626 (Broad Institute, 2014).
